Assay results from publication PMC13080237, “Functional divergence of protein kinase A regulatory subunit Iβ variants: the importance of N3A motifs in PKA regulation” (The Febs Journal, 2025).

Columns and labels:
[1] = target: GFP2 fusion of human PKA Cα (BRET acceptor) (human) (UniProt P17612); assay: FRET or BRET; BRET2 in living HEK293 cells; RLuc8 fused to the R subunit, GFP2 fused to the C subunit; 37 °C, HBSS w/o Mg2+/Ca2+ pH 7.4, coelenterazine 400a; time courses and end points (20 min); cells treated with buffer, 100 nM isoproterenol, or 50 uM forskolin + 100 uM IBMX
[2] = target: T1, RIβ (RIβ A268; His-RIβ) (Homo sapiens, UniProt P31321, A268R); assay: fluorescence polarization, direct titration; format: binding; conditions: labelled compound; 0.5 nM 8-Fluo-cAMP, RIβ R268 dilution series; 20 mM MOPS pH 7.4, 150 mM NaCl, room temperature; residue 268 in bovine RIα numbering (270 in human RIβ); read-out: affinity
T1 construct: gene PRKAR1B; full-length, N-terminal His-tag (pQTEV vector), E. coli TP2000 cells, Ni-NTA; dimer; 380 residues as printed

[3] = target: T2, RIβ (RIβ A268; His-RIβ) (Homo sapiens, UniProt P31321); assay: fluorescence polarization, direct titration; format: binding; conditions: labelled compound; 0.5 nM 8-Fluo-cAMP, RIβ dilution series; 20 mM MOPS pH 7.4, 150 mM NaCl, room temperature; read-out: affinity
T2 construct: gene PRKAR1B; full-length, N-terminal His-tag (pQTEV vector), E. coli TP2000 cells, Ni-NTA; dimer; 380 residues as printed
T2 sequence (P31321 2-381): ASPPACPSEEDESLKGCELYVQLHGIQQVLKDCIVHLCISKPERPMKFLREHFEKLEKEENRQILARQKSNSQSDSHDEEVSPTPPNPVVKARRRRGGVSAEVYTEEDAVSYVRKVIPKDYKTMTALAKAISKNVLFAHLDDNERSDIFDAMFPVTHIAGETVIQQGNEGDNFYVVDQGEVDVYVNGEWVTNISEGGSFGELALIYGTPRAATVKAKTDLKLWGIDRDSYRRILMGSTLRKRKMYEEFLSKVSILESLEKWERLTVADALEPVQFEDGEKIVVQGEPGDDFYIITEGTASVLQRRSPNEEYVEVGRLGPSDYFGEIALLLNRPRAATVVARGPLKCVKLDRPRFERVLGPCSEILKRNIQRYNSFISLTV

T1 sequence (P31321 2-381 A268R): as the sequence (P31321 2-381) above, with A267R counted along it

| maximal cAMP-induced dissociation of the holoenzyme (%) [1] [%] | Kd [2] [nM] | Kd [3] [nM] | Substance |
| --- | --- | --- | --- |
| 30 |  |  | RLuc8 fusion of human RIβ R268 (BRET donor) (natural protein) |
|  | 4 | 4 | 8‐(2‐[fluoresceinyl]aminoethylthio)‐cAMP [8-Fluo-cAMP] |
